Reference: US12084418B2, “Small molecule inhibitors of G(alpha)i2 protein and uses thereof” (Clark Atlanta University, Inc., priority 2020, dated 2024)
Entries after “also recorded” stand apart in the source; their conditions may differ. One block for each compound: values may come before it.

Key:
PC3 cells [1] = test: Transwell migration assay in PC3 cells; format: cell-based, human
Method: (§1) Human prostate cancer cell lines (DU145 and PC3) were obtained from American Type Culture Collection (ATCC) (Rockville, MD). DU145 and PC3 are androgen independent cell lines, derived from brain and bone metastatic sites, respectively. They were maintained in Minimum Essential Medium, supplemented with 5% FBS, in a 5% CO2 environment at 37° C. E006AA cells are derived from localized prostate cancer in a patient. These cells were maintained in Dulbecco's Modified Eagle Medium, supplemented with 5% FBS, in a 5% CO2 environment at 37° C.
For biological assays, the compounds were dissolved in DMSO at a starting concentration of 0.05 mM (compound 12) and 0.1 mM (compounds 9a-b, 13 and 14) and then diluted in culture media to the final concentrations used for the assays.
(§2) In vitro cell migration and invasion assays were conducted using 24-well transwell inserts (8 μm). The transwell inserts were coated with […] of rat tail collagen for migration assays, and with 50 μl of a 1:4 Matrigel/Coating buffer solution for invasion assays. Cells were suspended at the appropriate density in appropriate media and treated with the inhibitors, at specific concentrations. For migration assays, EGF was used as a chemoattractant (10 ng/ml) for PC3, DU145, E006AA and SKOV3 cells; 10% FBS was used for MCF7 cells. The plates were incubated at 37° C. for 5 hours (DU145, PC3 and SKOV3), 24 hours (E006AA) or 48 hours (MCF7) for migration assays, and 48 hours for invasion assays. After fixation, the cells were stained with 3 ng/ml of DAPI and images of five non-overlapping fields were captured using Axiovert 200M, Carl Zeiss (Thornwood, NY) microscope. The number of stained nuclei were determined with automatic counting using image analysis software (ZEN 2012; Carl Zeiss). Results were expressed as migration or invasion index defined as: the average number of cells per field for test substance/the average number of cells per field for the medium control.

PC3 cells [2] = test: Cell viability assay (MTS); format: cell-based, human; conditions: compound 10 μM, 24 hours
Method: FIG. 3C is a graph depicting a viability study of PC3 cells treated for 24 hours with inhibitor compounds 9b, 13 and 14, at 10 μM. MTS assays were conducted for 4 hours and the results were expressed as % of viable treated cells against the control cells. Each bar represents mean±SEM (n=3).
Cell viability assays were performed using CellTiter 96® AQueous One Solution Cell Proliferation Assay (MTS) from Promega, according to the manufacture's protocol. Briefly, 5.0×10^4 cells/well were plated in a 96 well plates and incubated in a 5% CO2 environment at 37° C. overnight. After 24 hours the medium was replaced with fresh medium, containing several compounds at the appropriate concentrations. Diluted DMSO was used as a control. MTS assays were performed after 24 hours and the absorbance read at 490 nm, using a spectrophotometer.

PC3 cells [3] = test: Transwell migration assay in PC3 cells; format: cell-based, human; conditions: absence of EGF stimulus
PC3 cells [4] = test: Cell viability assay (MTS); format: cell-based, human; conditions: 24 hours
DU145 cells = test: Transwell migration assay in DU145 cells; format: cell-based, human; conditions: compound 10 μM
Method: as §1
as §2, with “The plates were incubated at 37° C. for 5 hours (DU145, PC3 and SKOV3), 24 hours (E006AA) or 48 hours (MCF7) for migration assays, and 48 hours for invasion assays. After fixation, the cells were stained with 3 ng/ml of DAPI and images of five non-overlapping fields were captured using Axiovert 200M, Carl Zeiss (Thornwood, NY) microscope.” left out

E006AA cells = test: Transwell migration assay in E006AA cells; format: cell-based, human; conditions: compound 10 μM
Method: as §1
as §2, with “The plates were incubated at 37° C. for 5 hours (DU145, PC3 and SKOV3), 24 hours (E006AA) or 48 hours (MCF7) for migration assays, and 48 hours for invasion assays. After fixation, the cells were stained with 3 ng/ml of DAPI and images of five non-overlapping fields were captured using Axiovert 200M, Carl Zeiss (Thornwood, NY) microscope.” left out

Gαi2 = target: T1, Gαi2 (Homo sapiens, UniProt P04899); test: Immunoprecipitation of active Gαi and Western blot with anti-Gαi2 antibody in PC3 cells; format: cell-based; conditions: for activation of Gαi2 (conversion from GDP- to GTP-state): stimulus not given
T1 construct: endogenous in cells; host or cells: PC3 cells
Method: PC3 cells (3×10^6 cell/dish) were incubated with or without inhibitor compound 14 (10 μM) for 30 minutes and then treated with EGF (10 ng/ml) or oxytocin (200 nmol/L) for additional 30 minutes. Cells were lysed in ice-cold cell lysis buffer (Cell Signaling Technology) and snap-frozen in liquid nitrogen. Total cell lysates, containing approximately 1000 μg of proteins, were used for immunoprecipitation. The lysates were incubated with 1 μg of anti-active Gαi antibody, overnight at 4° C. Immunocomplexes were collected by centrifugation after incubation with protein A/G-Sepharose beads for 48 h (Santa Cruz Biotechnology) and were analyzed by Western blot analysis with specific anti-Gαi2 antibody (Abcam).
Western blot analyses were performed. Briefly, protein samples (30-35 μg proteins) were separated on 10% SDS-PAGE gels and transferred to polyvinylidene difluoride (PVDF) membranes (Millipore Corp., Bedford, Massachusetts). After blocking, the membranes were incubated with several primary antibodies, at appropriate dilutions (1:500 for Giα2; 1:3000 for α-tubulin) overnight at 4° C. After washing, the blots were incubated with appropriate secondary antibodies and developed in ECL mixture, using Syngene PXi Imaging System, according to the manufacture's manual. α-tubulin was used as loading control.

PC3 cells [5] = test: Transwell (Matrigel) invasion assay in PC3 cells; format: cell-based, human; conditions: compound 10 μM, 48 hours
Method: as §2

DU145-Gαi2-Q205L cells = test: Transwell migration assay in DU145 cells overexpressing constitutively active Gαi2 (Gαi2-Q205L); format: cell-based, human
Method: DU145 cells were seeded in 6-well plates at a density of 2.0×10^5 cells per well and transfected with pcDNA3.1-EV and pcDNA3.1-Gαi2-Q205L, using ViaFect™ transfection reagent, according to the manufacturer's protocol. Briefly, media with no antibiotics (200 μl/well) containing 2 μg of plasmids DNA were mixed with the transfection reagent (6 μl/well) and, after 20 minutes, the mixtures were added drop by drop on the cells and the cells were cultured for 48 hours. Then the cells were harvested and used for several assays.
as §2

MCF7 cells = test: Transwell migration assay in MCF7 cells; format: cell-based, human; conditions: compound 10 μM, 10% FBS, 48 hours
Method: (§3) Human breast adenocarcinoma cell line MCF7 and human ovarian adenocarcinoma cell line SKOV3 were obtained from American Type Culture Collection (ATCC) (Rockville, MD) and maintained in Dulbecco's Modified Eagle Medium, supplemented with 5% FBS, in a 5% CO2 environment at 37° C.
as §2, with “After fixation, the cells were stained with 3 ng/ml of DAPI and images of five non-overlapping fields were captured using Axiovert 200M, Carl Zeiss (Thornwood, NY) microscope.” left out

SKOV3 cells = test: Transwell migration assay in SKOV3 cells; format: cell-based, human; conditions: compound 10 μM, EGF 10 ng/ml, 5 hours
Method: as §3
as §2, with “After fixation, the cells were stained with 3 ng/ml of DAPI and images of five non-overlapping fields were captured using Axiovert 200M, Carl Zeiss (Thornwood, NY) microscope.” left out

[6] = compound 10 μM, EGF 10 ng/ml, 5 hours
[7] = compound 50 μM, in presence of EGF
[8] = compound 100 μM, in presence of EGF

T1 sequence (P04899 whole entry): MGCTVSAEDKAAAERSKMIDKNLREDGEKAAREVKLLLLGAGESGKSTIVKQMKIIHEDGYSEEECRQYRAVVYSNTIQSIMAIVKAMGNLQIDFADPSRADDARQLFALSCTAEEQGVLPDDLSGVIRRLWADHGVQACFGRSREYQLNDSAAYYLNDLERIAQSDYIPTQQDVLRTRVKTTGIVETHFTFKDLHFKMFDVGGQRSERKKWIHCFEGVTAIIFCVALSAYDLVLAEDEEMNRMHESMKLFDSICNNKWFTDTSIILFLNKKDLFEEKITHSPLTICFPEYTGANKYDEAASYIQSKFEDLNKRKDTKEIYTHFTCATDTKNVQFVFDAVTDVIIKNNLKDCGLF

SMILES: C/C(=N\c1ccc(O)cc1)c1sc2ccccc2c1O [Compound 12, (E)-2-(1-((4-hydroxyphenyl)imino)ethyl)benzo[b]thiophen-3-ol, reference compound]
- migratory capability of PC3 cells (migration index) (PC3 cells [1]; [6]): had no effect on the migration
- migratory capability of PC3 cells (migration index) (PC3 cells [1]; [7]): caused a reduction in the migratory capability
- migratory capability of PC3 cells (migration index) (PC3 cells [1]; [8]): caused a reduction in the migratory capability
- cell viability (PC3 cells [2]): had no effect on cell viability
- migratory capability of PC3 cells (migration index) (PC3 cells [3]; compound 50 μM): caused a reduction in the migratory capability
- migratory capability of PC3 cells (migration index) (PC3 cells [3]; compound 100 μM): caused a reduction in the migratory capability
- cell viability (PC3 cells [4]; compound 50 μM): cytotoxic
- cell viability (PC3 cells [4]; compound 100 μM): cytotoxic

- activation of Gαi2 (conversion from GDP- to GTP-state) (Gαi2): impaired activation of Gαi2
SMILES: C/C(=N\c1ccc(O)cc1)c1cc2ccccc2s1 [Compound 13, (E)-4-((1-(benzo[b]thiophen-2-yl)ethylidene)amino)phenol]
- migratory capability of PC3 cells (migration index) (PC3 cells [1]; [6]): significantly decreased EGF-induced migratory capability; also recorded: significantly reduced the migratory capability
- migratory capability of PC3 cells (migration index) (PC3 cells [1]; [7]): reduced the migratory capability
- migratory capability of PC3 cells (migration index) (PC3 cells [1]; [8]): reduced the migratory capability
- cell viability (PC3 cells [2]): had no effect on cell viability; also recorded: did not affect cell viability
- EGF-induced migration of DU145 cells (DU145 cells): reduced the EGF-induced migration
- EGF-induced migration of E006AA cells (E006AA cells): reduced the EGF-induced migration
- cell viability (PC3 cells [4]; compound 50 μM): cytotoxic
- cell viability (PC3 cells [4]; compound 100 μM): cytotoxic

- levels of active Gαi2 after stimulation with OXT (Gαi2; PC3 cells, OXT 200 nmol/L 30 minutes, compound 14 at 10 μM): the levels of active Gαi2 were reduced
SMILES: C/C(=N\c1ccc(O)cc1)c1cc2ccccc2n1C [Compound 14, (E)-4-((1-(1-methyl-1H-indol-2-yl)ethylidene)amino)phenol]
- migratory capability of PC3 cells (migration index) (PC3 cells [1]; [6]): significantly decreased EGF-induced migratory capability; also recorded: significantly reduced the migratory capability
- migratory capability of PC3 cells (migration index) (PC3 cells [1]; [7]): reduced the migratory capability
- migratory capability of PC3 cells (migration index) (PC3 cells [1]; [8]): reduced the migratory capability
- invasive capability of PC3 cells (invasion index) (PC3 cells [5]; in response to EGF 10 ng/ml): significantly reduced; also recorded: inhibited
- invasive capability of PC3 cells (invasion index) (PC3 cells [5]; in response to FBS (5%)): significantly reduced
- cell viability (PC3 cells [2]): had no effect on cell viability; also recorded: did not affect cell viability
- EGF-induced migration of DU145 cells (DU145 cells): reduced the EGF-induced migration
- EGF-induced migration of E006AA cells (E006AA cells): reduced the EGF-induced migration
- activation of Gαi2 (conversion from GDP- to GTP-state) (Gαi2): reduced activation of Gαi2; also recorded: impaired activation of Gαi2
- EGF-stimulated cell migration of DU145-Gαi2-Q205L cells (DU145-Gαi2-Q205L cells; compound 10 μM, EGF 10 ng/ml): attenuation
- basal cell migration of DU145-Gαi2-Q205L cells (DU145-Gαi2-Q205L cells; compound 10 μM, basal): attenuation
- migration of DU145-Gαi2-Q205L cells (DU145-Gαi2-Q205L cells; stimulus and concentration not stated at the place (FIG. 5B)): significantly reduced migration
- migration of MCF7 cells (MCF7 cells): impaired the migratory capability; also recorded: significantly reduced migration
- migration of SKOV3 cells (SKOV3 cells): impaired the migratory capability; also recorded: significantly reduced migration
- cell viability (PC3 cells [4]; compound 50 μM): cytotoxic
- cell viability (PC3 cells [4]; compound 100 μM): cytotoxic
